In US9321756B2, “Azole compounds as PIM inhibitors” (priority 2011, dated 2016):
pIC50: −log10 of the molar value. Like-named read-outs stand apart in the source and are kept apart here.

Experiments:
[1] = biological target: full length recombinant Pim-1 (Homo sapiens (Human), UniProt P11309); experiment: Pim enzyme assay (HTRF, phosphorylation of biotinylated-BAD (S112) peptide), Pim-1; type: biochemical; details: read-out: Pim_1_IC50
[2] = biological target: full length recombinant Pim-2 (Homo sapiens (Human), UniProt Q9P1W9); experiment: Pim enzyme assay (HTRF, phosphorylation of biotinylated-BAD (S112) peptide), Pim-2; type: biochemical; details: read-out: Pim2_IC50
[3] = biological target: full length recombinant Pim-3 (Homo sapiens (Human), UniProt Q86V86); experiment: Pim enzyme assay (HTRF, phosphorylation of biotinylated-BAD (S112) peptide), Pim-3; type: biochemical; details: read-out: Pim3 IC50
In short: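 IC50 values were fitted with a 4-parameter logistic model to percent-of-control HTRF signal (Eu anti-phospho-BAD S112 antibody/streptavidin-APC). Reactions used full-length Pim-3 and biotin-BAD (S112) peptide, ran 1 h 30 min at RT (22 °C) in Hepes pH 7.0 buffer with BSA and DTT, and were stopped by 3 mM EDTA.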

[4] = system: Pim-1 stably transfected U2OS human osteogenic sarcoma line; experiment: Pim cell assay U2OS (phospho-BAD normalized against total BAD), Pim-1 transfected; type: cell-based; details: Homo sapiens, U2OS
[5] = system: Pim-2 stably transfected U2OS human osteogenic sarcoma line; experiment: Pim cell assay U2OS (phospho-BAD normalized against total BAD), Pim-2 transfected; type: cell-based; details: Homo sapiens, read-out: U2OS Pim2_Cell_IC50
[6] = read-out: U2OS Pim1_Cell_IC50, U2OS cells, Pim-1 transfected

Sequence of full length recombinant Pim-2 (Q9P1W9 whole entry): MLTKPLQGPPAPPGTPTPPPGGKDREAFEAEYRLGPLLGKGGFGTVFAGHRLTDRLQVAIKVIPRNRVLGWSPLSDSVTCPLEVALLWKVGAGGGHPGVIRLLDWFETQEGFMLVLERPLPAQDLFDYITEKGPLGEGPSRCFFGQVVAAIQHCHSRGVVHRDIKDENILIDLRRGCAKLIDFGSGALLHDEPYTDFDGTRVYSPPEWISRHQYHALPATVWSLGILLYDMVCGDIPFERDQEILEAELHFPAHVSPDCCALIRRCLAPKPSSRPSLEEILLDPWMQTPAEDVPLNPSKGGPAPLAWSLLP
Sequence of full length recombinant Pim-1 (P11309 whole entry): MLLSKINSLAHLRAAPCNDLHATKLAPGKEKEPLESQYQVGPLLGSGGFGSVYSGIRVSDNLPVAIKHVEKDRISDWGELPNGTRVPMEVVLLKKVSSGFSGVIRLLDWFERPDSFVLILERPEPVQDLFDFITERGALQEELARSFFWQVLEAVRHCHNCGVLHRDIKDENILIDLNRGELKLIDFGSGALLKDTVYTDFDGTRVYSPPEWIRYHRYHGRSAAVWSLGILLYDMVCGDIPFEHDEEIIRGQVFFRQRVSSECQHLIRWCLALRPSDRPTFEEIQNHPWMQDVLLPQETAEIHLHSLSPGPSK

| Structure (SMILES) | pIC50 ([1]; Pim-1 enzyme assay) | pIC50 ([2]; Pim-2 enzyme assay) | pIC50 ([3]; Pim-3 enzyme assay) | pIC50 [4, 6] | pIC50 ([5]; U2OS cells, Pim-2 transfected) | pIC50 ([4]; read-out: U2OS Pim1_Cell_IC50) | pIC50 [1] | pIC50 [2] | pIC50 [3] | pIC50 ([5]; U2OS) |
| --- | --- | --- | --- | --- | --- | --- | --- | --- | --- | --- |
| Nc1nnc(-c2ccc3[nH]cc(-c4ccccc4F)c3c2)s1 [Example 136, 5-(3-(2-fluorophenyl)-1H-indol-5-yl)-1,3,4-thiadiazol-2-amine] | 7.17 | 7.22 | 7.51 | 5.47 | < 4.50 |  |  |  |  |  |
| CN(C)c1cncc(-c2c[nH]c3ccc(-c4nnc(N)s4)cc23)n1 [Example 158, 6-(5-(5-amino-1,3,4-thiadiazol-2-yl)-1H-indol-3-yl)-N,N-dimethyl-2-pyrazinamine] | 8.09 | 7.55 | 8.41 | 6.88 | 5.52 |  |  |  |  |  |
| Nc1nnc(-c2ccc3[nH]cc(-c4cncc(-c5cccc(F)c5)n4)c3c2)o1 [Example 119, 5-(3-(6-(3-fluorophenyl)-2-pyrazinyl)-1H-indol-5-yl)-1,3,4-oxadiazol-2-amine] | 8.22 | 7.97 | 8.67 |  | < 4.50 | 7.07 |  |  |  |  |
| CC(C)Nc1cccc(-c2c[nH]c3ccc(-c4nnc(N)s4)cc23)n1 [Example 203, 6-(5-(5-amino-1,3,4-thiadiazol-2-yl)-1H-indol-3-yl)-N-(1-methylethyl)-2-pyridinamine] | 7.68 | 7.43 | 8.27 | 6.42 | 5.66 |  |  |  |  |  |
| CNc1nnc(-c2ccc3[nH]cc(-c4ccccc4F)c3c2)s1 [Example 235, 5-(3-(2-fluorophenyl)-1H-indol-5-yl)-N-methyl-1,3,4-thiadiazol-2-amine] | 6.64 | 6.11 | 7.20 |  | < 4.50 | 5.27 |  |  |  |  |
| Nc1nnc(-c2ccc3[nH]cc(-c4nccc(Nc5ccccc5)n4)c3c2)o1 [Example 108, 2-(5-(5-amino-1,3,4-oxadiazol-2-yl)-1H-indol-3-yl)-N-phenyl-4-pyrimidinamine] | 8.03 | 8.51 | 8.68 |  | 5.85 | 6.15 |  |  |  |  |
| Nc1nnc(-c2ccc3[nH]cc(-c4ccnc(N5CCOCC5)n4)c3c2)s1 [Example 133, 5-(3-(2-(4-morpholinyl)-4-pyrimidinyl)-1H-indol-5-yl)-1,3,4-thiadiazol-2-amine] | 7.87 | 7.71 | 8.40 | 6.27 | 5.09 |  |  |  |  |  |
| CN1CCN(c2cncc(-c3c[nH]c4ccc(-c5nnc(N)s5)cc34)n2)CC1=O [Example 18, 4-(6-(5-(5-amino-1,3,4-thiadiazol-2-yl)-1H-indol-3-yl)pyrazin-2-yl)-1-methylpiperazin-2-one] | 7.80 | 7.05 | 8.13 |  | < 4.50 | < 4.50 |  |  |  |  |
| CCCOc1cccc(-c2c[nH]c3ccc(-c4nnc(N)s4)cc23)n1 [Example 165, 5-(3-(6-propoxy-2-pyridinyl)-1H-indol-5-yl)-1,3,4-thiadiazol-2-amine] | 7.82 | 7.45 | 8.24 |  | 5.37 | 6.64 |  |  |  |  |
| CC(C)Oc1ccc(F)c(-c2c[nH]c3ccc(-c4nnc(N)o4)nc23)c1 [Example 125, 5-(3-(2-fluoro-5-(1-methylethoxy)phenyl)-1H-pyrrolo[3,2-b]pyridin-5-yl)-1,3,4-oxadiazol-2-amine] | 7.64 | 7.24 | 8.11 | 6.96 | 5.35 |  |  |  |  |  |
| CNc1nnc(-c2ccc3[nH]cc(-c4cccc(-n5cnc(C)c5)n4)c3c2)s1 [Example 228, N-methyl-5-(3-(6-(4-methyl-1H-imidazol-1-yl)-2-pyridinyl)-1H-indol-5-yl)-1,3,4-thiadiazol-2-amine] | 7.88 | 8.08 | 8.82 |  | < 4.50 | < 4.50 |  |  |  |  |
| Nc1nnc(-c2ccc3[nH]cc(-c4cccc(-c5ccccc5)n4)c3c2)s1 [Example 130, 5-(3-(6-phenyl-2-pyridinyl)-1H-indol-5-yl)-1,3,4-thiadiazol-2-amine] | 7.40 | 7.41 | 7.69 |  | < 4.50 | 5.10 |  |  |  |  |
| CCOc1cccc(-c2c[nH]c3ccc(-c4nnc(N)s4)cc23)n1 [Example 164, 5-(3-(6-ethoxy-2-pyridinyl)-1H-indol-5-yl)-1,3,4-thiadiazol-2-amine] | 7.83 | 7.67 | 8.49 |  | 5.43 | 6.85 |  |  |  |  |
| Cc1nnc(-c2ccc3[nH]cc(-c4cccc(OC(C)C)n4)c3c2)o1 [Example 42, 2-(3-(6-isopropoxypyridin-2-yl)-1H-indol-5-yl)-5-methyl-1,3,4-oxadiazole] | 7.67 | 7.41 | 8.00 |  | 4.81 | 6.56 |  |  |  |  |
| CC(Oc1cncc(-c2c[nH]c3ccc(-c4nnc(N)s4)cc23)n1)C(F)(F)F (stereo not drawn) [Example 211, 5-(3-(6-(2,2,2-trifluoro-1-methylethoxy)-2-pyrazinyl)-1H-indol-5-yl)-1,3,4-thiadiazol-2-amine] | 7.61 | 7.27 | 7.88 |  | 5.55 | 6.72 |  |  |  |  |
| Nc1nnc(-c2ccc3[nH]cc(-c4nccc(-c5ccccc5)n4)c3c2)o1 [Example 122, 5-(3-(4-phenyl-2-pyrimidinyl)-1H-indol-5-yl)-1,3,4-oxadiazol-2-amine] | 8.16 | 8.41 | 8.62 | 6.88 | 6.08 |  |  |  |  |  |
| Nc1nnc(-c2ccc3[nH]cc(-c4cncc(NCC5CC5)n4)c3c2)s1 [Example 207, 6-(5-(5-amino-1,3,4-thiadiazol-2-yl)-1H-indol-3-yl)-N-(cyclopropylmethyl)-2-pyrazinamine] | 8.75 | 8.11 | 8.78 |  | 5.96 | 7.43 |  |  |  |  |
| C[C@H]1CCCN(c2ccnc(-c3c[nH]c4ccc(-c5nnc(N)o5)cc34)n2)C1 (stereo in doubt) [Example 105, 5-(3-(4-(3-methyl-1-piperidinyl)-2-pyrimidinyl)-1H-indol-5-yl)-1,3,4-oxadiazol-2-amine] | 8.26 | 8.32 | 8.75 |  | 6.04 | 6.98 |  |  |  |  |
| Nc1nnc(-c2ccc3[nH]cc(-c4cncc(NCC5CC5)n4)c3c2)o1 [Example 100, 6-(5-(5-amino-1,3,4-oxadiazol-2-yl)-1H-indol-3-yl)-N-(cyclopropylmethyl)-2-pyrazinamine] | 8.94 | 8.68 | 9.18 |  | 6.26 | 7.38 |  |  |  |  |
| COc1cc(-c2c[nH]c3ccc(-c4nnc(N)s4)cc23)nc(OC(C)C)n1 [Example 200, 5-(3-(6-methoxy-2-(1-methylethoxy)-4-pyrimidinyl)-1H-indol-5-yl)-1,3,4-thiadiazol-2-amine] | 7.81 | 7.52 | 8.66 |  | 5.42 | 6.95 |  |  |  |  |
| CNc1nnc(-c2ccc3[nH]cc(-c4cccc(N5CCCC5=O)n4)c3c2)s1 [Example 229, 1-(6-(5-(5-(methylamino)-1,3,4-thiadiazol-2-yl)-1H-indol-3-yl)-2-pyridinyl)-2-pyrrolidinone] | 7.54 | 7.09 | 8.17 |  | < 4.50 | 6.51 |  |  |  |  |
| CN1CCN(c2cccc(-c3c[nH]c4ccc(-c5nnc(N)s5)cc34)n2)CC1 [Example 13, 5-(3-(6-(4-methylpiperazin-1-yl)pyridin-2-yl)-1H-indol-5-yl)-1,3,4-thiadiazol-2-amine] |  |  |  | 6.70 |  |  | 8.69 | 7.96 | 9.20 | 5.52 |
| CC(C)Cn1cc(-c2c[nH]c3ccc(-c4nnc(N)o4)cc23)cn1 [Example 80, 5-(3-(1-(2-methylpropyl)-1H-pyrazol-4-yl)-1H-indol-5-yl)-1,3,4-oxadiazol-2-amine] | 7.33 | 7.11 | 7.17 |  | 5.44 | 6.85 |  |  |  |  |
| CN1CCN(c2cccc(-c3c[nH]c4ccc(-c5nnc(N)o5)cc34)n2)CC1 [Example 75, 5-(3-(6-(4-methyl-1-piperazinyl)-2-pyridinyl)-1H-indol-5-yl)-1,3,4-oxadiazol-2-amine] | 8.42 | 8.16 | 8.60 |  | 5.63 | 6.76 |  |  |  |  |
| Nc1nnc(-c2ccc3[nH]cc(-c4cncc(N5CCC(F)(F)C5)n4)c3c2)o1 [Example 88, 5-(3-(6-(3,3-difluoro-1-pyrrolidinyl)-2-pyrazinyl)-1H-indol-5-yl)-1,3,4-oxadiazol-2-amine] | 8.72 | 8.19 | 8.79 |  | 6.33 | 7.39 |  |  |  |  |
| Nc1nnc(-c2ccc3[nH]cc(-c4nccc(Oc5ccccc5)n4)c3c2)o1 [Example 106, 5-(3-(4-phenoxy-2-pyrimidinyl)-1H-indol-5-yl)-1,3,4-oxadiazol-2-amine] | 7.82 | 8.19 | 8.24 |  | 5.93 | 6.81 |  |  |  |  |
| Nc1nnc(-c2ccc3[nH]cc(-c4ccc5nccnc5c4)c3c2)s1 [Example 151, 5-(3-(6-quinoxalinyl)-1H-indol-5-yl)-1,3,4-thiadiazol-2-amine] | 6.99 | 6.84 | 7.76 |  | < 4.50 | 6.03 |  |  |  |  |
